Earlier results in patent US6916480B2, “Wiper containing a controlled-release anti-microbial agent” (Kimberly-Clark Worldwide, Inc., priority 1999, dated 2005).

Experiments:
E. Coli = settings: according to most literature
Salmonella spp. = settings: according to most literature

[Ag] [silver]
silver content that can effectively kill microbes (E. Coli): 20 parts per billion (ppb)
silver content that can effectively kill microbes (Salmonella spp.): 20 parts per billion (ppb)
